Data on 13 molecules can be found in patent US9499550B2 (BRISTOL-MYERS SQUIBB COMPANY, priority 2012, dated 2016).

One may read the EC50 as the concentration needed to bring the measured effect to its halfway point.

In assay [1] the test system is HCV genotype 1a (H77 strain) replicon in HUH-7 cells. In words: HCV replicon luciferase reporter assay, genotype 1a. In kind it is cell-based. The conditions noted are these: Hepatitis C virus, Huh-7, 72 h, HCV genotype 1a replicon luciferase assay, 3 days incubation, range class, read-out: LE_1a (EC50, range). The method, boiled down: (§1)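 Replicon inhibition for both genotypes was measured as Renilla luciferase signal (EnduRen, 7.5 μM final, 2 h) after 3-day, 37° C exposure of replicon-bearing HUH-7 cells in 4% FCS DMEM, 0.5% DMSO. The 1b construct carries S1179I; the 1a H77 construct carries P1496L and S2204I. Twenty-point, 3-fold dilutions were fitted four-parametrically for EC50, and CC50 was taken from multiplexed Cell Titer-Blue.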
(A replicon is a self-replicating genome or part of one, used to study replication in cells.)

Assay [2] concerns HCV genotype 1b (Con1) replicon in HUH-7 cells. Nature of the assay: HCV replicon luciferase reporter assay, genotype 1b. The settings on record: Hepatitis C virus, Huh-7, 72 h, HCV genotype 1b replicon luciferase assay, 3 days incubation, range class, read-out: LE_1b (EC50, range). In kind it is cell-based. The method, boiled down:
as §1

Where two headings read alike, the source gives them in different places. A value given as a limit tells only on which side of the number the result lay.

Consider `COc1ccc2c(O[C@@H]3C[C@H]4C(=O)N[C@]5(C(=O)NS(=O)(=O)C6(CF)CC6)C[C@H]5/C=C\CC[C@@H](C)C[C@@H](C)[C@H](NC(=O)OC(C)(C)C)C(=O)N4C3)nc(OC)nc2c1` [Compound 3015, tert-butyl ((2R,6S,7R,9R,13aS,14aR,16aS,Z)-2-((2,7-dimethoxyquinazolin-4-yl)oxy)-14a-(((1-(fluoromethyl)cyclopropyl)sulfonyl)carbamoyl)-7,9-dimethyl-5,16-dioxo-1,2,3,5,6,7,8,9,10,11,13a,14,14a,15,16,16a-hexadecahydrocyclopropa[e]pyrrolo[1,2-a][1,4]diazacyclopentadecin-6-yl)carbamate], for which the 50% effective concentration (EC50) in assay [1] and in assay [2] was less than 5.46 nM each time.

Take `COc1ccc2c(O[C@@H]3C[C@H]4C(=O)N[C@]5(C(=O)NS(=O)(=O)C6CC6)C[C@H]5/C=C\CC[C@H](C)C[C@@H](C)[C@H](NC(=O)OC(C)(C)C)C(=O)N4C3)nc(-c3ccc(OC(C)C)cc3)nc2c1` [Compound 3016, tert-butyl ((2R,6S,7R,9S,13aS,14aR,16aS,Z)-14a-((cyclopropylsulfonyl)carbamoyl)-2-((2-(4-isopropoxyphenyl)-7-methoxyquinazolin-4-yl)oxy)-7,9-dimethyl-5,16-dioxo-1,2,3,5,6,7,8,9,10,11,13a,14,14a,15,16,16a-hexadecahydrocyclopropa[e]pyrrolo[1,2-a][1,4]diazacyclopentadecin-6-yl)carbamate]: the EC50 in assay [1] and in assay [2] was less than 5.46 nM in each case.

On to `COc1ccc2c(O[C@@H]3C[C@H]4C(=O)N[C@]5(C(=O)NS(=O)(=O)C6CC6)C[C@H]5/C=C\CC[C@@H](C)C[C@@H](C)[C@H](NC(=O)OC(C)(C)C)C(=O)N4C3)nc(-c3ccc(OC(C)C)cc3)nc2c1` [Compound 3017, tert-butyl ((2R,6S,7R,9R,13aS,14aR,16aS,Z)-14a-((cyclopropylsulfonyl)carbamoyl)-2-((2-(4-isopropoxyphenyl)-7-methoxyquinazolin-4-yl)oxy)-7,9-dimethyl-5,16-dioxo-1,2,3,5,6,7,8,9,10,11,13a,14,14a,15,16,16a-hexadecahydrocyclopropa[e]pyrrolo[1,2-a][1,4]diazacyclopentadecin-6-yl)carbamate], for which the EC50 in assay [1] and in assay [2] was less than 5.46 nM throughout.

On to `COc1ccc2c(O[C@@H]3C[C@H]4C(=O)N[C@]5(C(=O)NS(=O)(=O)C6(CF)CC6)C[C@H]5/C=C\CC[C@H](C)C[C@@H](C)[C@H](NC(=O)OC(C)(C)C(F)(F)F)C(=O)N4C3)nc(N3CCCC3)nc2c1` [Compound 3018, 1,1,1-trifluoro-2-methylpropan-2-yl((2R,6S,7R,9S,13aS,14aR,16aS,Z)-14a-(((1-(fluoromethyl)cyclopropyl)sulfonyl)carbamoyl)-2-((7-methoxy-2-(pyrrolidin-1-yl)quinazolin-4-yl)oxy)-7,9-dimethyl-5,16-dioxo-1,2,3,5,6,7,8,9,10,11,13a,14,14a,15,16,16a-hexadecahydrocyclopropa[e]pyrrolo[1,2-a][1,4]diazacyclopentadecin-6-yl)carbamate], for which the EC50 in assay [1] and in assay [2] was 4.82 to 103 nM in each case.

With `COc1ccc2c(O[C@@H]3C[C@H]4C(=O)N[C@]5(C(=O)NS(=O)(=O)C6(CF)CC6)C[C@H]5/C=C\CC[C@@H](C)C[C@@H](C)[C@H](NC(=O)OC(C)(C)C(F)(F)F)C(=O)N4C3)nc(N3CCCC3)nc2c1` [Compound 3019, 1,1,1-trifluoro-2-methylpropan-2-yl((2R,6S,7R,9R,13aS,14aR,16aS,Z)-14a-(((1-(fluoromethyl)cyclopropyl)sulfonyl)carbamoyl)-2-((7-methoxy-2-(pyrrolidin-1-yl)quinazolin-4-yl)oxy)-7,9-dimethyl-5,16-dioxo-1,2,3,5,6,7,8,9,10,11,13a,14,14a,15,16,16a-hexadecahydrocyclopropa[e]pyrrolo[1,2-a][1,4]diazacyclopentadecin-6-yl)carbamate], the EC50 is 4.82 to 103 nM in assay [1] and less than 5.46 nM in assay [2].

Turning to `COc1ccc2c(O[C@@H]3C[C@H]4C(=O)N[C@]5(C(=O)NS(=O)(=O)C6(CF)CC6)C[C@H]5/C=C\CC[C@@H](C)C[C@@H](C)[C@H](NC(=O)OC(C)(C)C(F)(F)F)C(=O)N4C3)nc(OC)nc2c1` [Compound 3020], the EC50 is 4.82 to 103 nM in assay [1] (GETYPE1A) and less than 5.46 nM in assay [2] (GETYPE1B).

Take `COc1ccc2c(O[C@@H]3C[C@H]4C(=O)N[C@]5(C(=O)NS(=O)(=O)C6CC6)C[C@H]5/C=C\CC[C@H](C)C[C@@H](C)[C@H](NC(=O)OC(C)(C)C(F)(F)F)C(=O)N4C3)nc(-c3ccc(OC(C)C)cc3)nc2c1` [Compound 3021, 1,1,1-trifluoro-2-methylpropan-2-yl((2R,6S,7R,9S,13aS,14aR,16aS,Z)-14a-((cyclopropylsulfonyl)carbamoyl)-2-((2-(4-isopropoxyphenyl)-7-methoxyquinazolin-4-yl)oxy)-7,9-dimethyl-5,16-dioxo-1,2,3,5,6,7,8,9,10,11,13a,14,14a,15,16,16a-hexadecahydrocyclopropa[e]pyrrolo[1,2-a][1,4]diazacyclopentadecin-6-yl)carbamate]: the EC50 in assay [1] and in assay [2] was less than 5.46 nM each time.

Take `COc1ccc2c(O[C@@H]3C[C@H]4C(=O)N[C@]5(C(=O)NS(=O)(=O)C6CC6)C[C@H]5/C=C\CC[C@@H](C)C[C@@H](C)[C@H](NC(=O)OC(C)(C)C(F)(F)F)C(=O)N4C3)nc(-c3ccc(OC(C)C)cc3)nc2c1` [Compound 3022, 1,1,1-trifluoro-2-methylpropan-2-yl((2R,6S,7R,9R,13aS,14aR,16aS,Z)-14a-((cyclopropylsulfonyl)carbamoyl)-2-((2-(4-isopropoxyphenyl)-7-methoxyquinazolin-4-yl)oxy)-7,9-dimethyl-5,16-dioxo-1,2,3,5,6,7,8,9,10,11,13a,14,14a,15,16,16a-hexadecahydrocyclopropa[e]pyrrolo[1,2-a][1,4]diazacyclopentadecin-6-yl)carbamate]: the half-maximal effective concentration (EC50) in assay [1] and in assay [2] was less than 5.46 nM in each case.

With `CC[C@@H]1C[C@@H](C)CC/C=C\[C@@H]2C[C@@]2(C(=O)NS(=O)(=O)C2(C)CC2)NC(=O)[C@@H]2C[C@@H](Oc3nccc4c(OC)cccc34)CN2C(=O)[C@H]1NC(=O)OC(C)(C)C` [Compound 3023, tert-butyl ((2R,6S,7R,9S,13aS,14aR,16aS,Z)-7-ethyl-2-((5-methoxyisoquinolin-1-yl)oxy)-9-methyl-14a-(((1-methylcyclopropyl)sulfonyl)carbamoyl)-5,16-dioxo-1,2,3,5,6,7,8,9,10,11,13a,14,14a,15,16,16a-hexadecahydrocyclopropa[e]pyrrolo[1,2-a][1,4]diazacyclopentadecin-6-yl)carbamate], the EC50 in assay [1] and in assay [2] was 4.82 to 103 nM in each case.

In the case of `CC[C@@H]1C[C@H](C)CC/C=C\[C@@H]2C[C@@]2(C(=O)NS(=O)(=O)C2(C)CC2)NC(=O)[C@@H]2C[C@@H](Oc3nccc4c(OC)cccc34)CN2C(=O)[C@H]1NC(=O)OC(C)(C)C` [Compound 3024, tert-butyl ((2R,6S,7R,9R,13aS,14aR,16aS,Z)-7-ethyl-2-((5-methoxyisoquinolin-1-yl)oxy)-9-methyl-14a-(((1-methylcyclopropyl)sulfonyl)carbamoyl)-5,16-dioxo-1,2,3,5,6,7,8,9,10,11,13a,14,14a,15,16,16a-hexadecahydrocyclopropa[e]pyrrolo[1,2-a][1,4]diazacyclopentadecin-6-yl)carbamate], the EC50 in assay [1] and in assay [2] was less than 5.46 nM in each case.

Take `CC[C@@H]1C[C@@H](C)CC/C=C\[C@@H]2C[C@@]2(C(=O)NS(=O)(=O)C2CC2)NC(=O)[C@@H]2C[C@@H](Oc3nccc4c(OC)cccc34)CN2C(=O)[C@H]1NC(=O)OC(C)(C)C` [Compound 3025, tert-butyl ((2R,6S,7R,9S,13aS,14aR,16aS,Z)-14a-((cyclopropylsulfonyl)carbamoyl)-7-ethyl-2-((5-methoxyisoquinolin-1-yl)oxy)-9-methyl-5,16-dioxo-1,2,3,5,6,7,8,9,10,11,13a,14,14a,15,16,16a-hexadecahydrocyclopropa[e]pyrrolo[1,2-a][1,4]diazacyclopentadecin-6-yl)carbamate]: the EC50 in assay [1] and in assay [2] was 4.82 to 103 nM in each case.

Regarding `CC[C@@H]1C[C@H](C)CC/C=C\[C@@H]2C[C@@]2(C(=O)NS(=O)(=O)C2CC2)NC(=O)[C@@H]2C[C@@H](Oc3nccc4c(OC)cccc34)CN2C(=O)[C@H]1NC(=O)OC(C)(C)C` [Compound 3026, tert-butyl ((2R,6S,7R,9R,13aS,14aR,16aS,Z)-14a-((cyclopropylsulfonyl)carbamoyl)-7-ethyl-2-((5-methoxyisoquinolin-1-yl)oxy)-9-methyl-5,16-dioxo-1,2,3,5,6,7,8,9,10,11,13a,14,14a,15,16,16a-hexadecahydrocyclopropa[e]pyrrolo[1,2-a][1,4]diazacyclopentadecin-6-yl)carbamate], the EC50 in assay [1] and in assay [2] was less than 5.46 nM in each case.

As to `CC[C@@H]1C[C@@H](C)CC/C=C\[C@@H]2C[C@@]2(C(=O)NS(=O)(=O)C2(C)CC2)NC(=O)[C@@H]2C[C@@H](Oc3nccc4c(OC)cccc34)CN2C(=O)[C@H]1NC(=O)OC(C)(C)C(F)(F)F` [Compound 3027, 1,1,1-trifluoro-2-methylpropan-2-yl((2R,6S,7R,9S,13aS,14aR,16aS,Z)-7-ethyl-2-((5-methoxyisoquinolin-1-yl)oxy)-9-methyl-14a-(((1-methylcyclopropyl)sulfonyl)carbamoyl)-5,16-dioxo-1,2,3,5,6,7,8,9,10,11,13a,14,14a,15,16,16a-hexadecahydrocyclopropa[e]pyrrolo[1,2-a][1,4]diazacyclopentadecin-6-yl)carbamate], the EC50 in assay [1] and in assay [2] was 4.82 to 103 nM each time.
